Assay results as given in patent US11197878B2, “Anti-inflammatory composition including novel quercetin-based compound” (AMOREPACIFIC CORPORATION, priority 2017, dated 2021).

Assays:
Type in all cases: cell-based
Settings in all cases: fibroblast culture medium; H2O2 500 μM 24 hours, then test material (31, 32: 100 μg/ml) 48 hours; ELISA
IL-8 (Interleukin 8) = experiment: Test for inhibiting generation of IL-8 in H2O2-stimulated fibroblast (ELISA)
Method: (§1) Fibroblast (PromoCell, Germany) was inoculated in a 6-well culturing plate at a concentration of 1×10^5 cells, and cultured in a 5% CO2 incubator at 37° C. for 24 hours. The well was treated with H2O2 500 μM and stimulated for 24 hours, and then were treated with quercetin3-O-[3-O″-(E)-p-coumaroyl][β-D-glucopyranosyl-(1→3)-O-α-L-rhamnopyranosyl-(1→6)-O-β-D-glucopyranoside] (‘New Material 31’) and quercetin3-O-[3-O″-(E)-p-coumaroyl][α-L-rhamnopyranosyl-(1→6)-O-β-D-glucopyranoside]) (‘New Material 32’) at a concentration of 100 μg/ml, respectively, and reacted for 48 hours. After the reaction was finished, the culture medium was collected and the ELISA analysis was performed. Herein, α-bisabolol, which is the material typically used as an anti-inflammatory agent and abirritant, was used as a control. As PGE2, a kit of Assay Design® was used, and as IL-6 and IL-8, a kit of Endogen® was used, and the test was carried out according to the methods prescribed in the manuals of the respective companies. (‘31’ refers to New Material 31, and ‘32’ refers to New Material 32) Inhibition effect={1−(test sample−control)/(H2O2−control)}×100 <Equation 1>

PGE2 (Prostaglandin E2) = experiment: Test for inhibiting generation of PGE2 in H2O2-stimulated fibroblast (ELISA)
Method: as §1

IL-6 (Interleukin 6) = experiment: Test for inhibiting generation of IL-6 in H2O2-stimulated fibroblast (ELISA)
Method: as §1

Substance: α-bisabolol [a-bisabolol, reference compound]
- IL-8 (IL-8 (Interleukin 8)): 200 pg/mL
- PGE2 (PGE2 (Prostaglandin E2)): 205 pg/mL
- IL-6 (IL-6 (Interleukin 6)): 180 pg/mL
